# Tests used:
# [1] = target: Voltage-gated inwardly rectifying potassium channel KCNH2 (Homo sapiens, UniProt Q12809); assay: Inhibition of hERG in HEK293 cells measured after 5 mins by patch-clamp assay
# [2] = target: Muscarinic acetylcholine receptor M3 (Homo sapiens, UniProt P20309); assay: Antagonist activity at human muscarinic M3 receptor expressed in PathHunter U2OS CHRM3 beta-arrestin cells preincubated for 30 mins followed by agonist addition at 6 times EC80 and measured after 90 to 180 mins by PathHunter assay; assay type: functional, cell-based
# [3] = Oral bioavailability in male Sprague-Dawley rat at 25 mg/kg measured upto 24 hrs by LC-MS/MS analysis; assay type: ADME, organism-based; details: in vivo
# [4] = AUC (0 to infinity) in male Sprague-Dawley rat at 4 mg/kg, iv administered via tail vein and measured upto 24 hrs by LC-MS/MS analysis; assay type: ADME, organism-based; details: in vivo
# [5] = MRT (0 to infinity) in male Sprague-Dawley rat at 25 mg/kg, po measured upto 24 hrs by LC-MS/MS analysis; assay type: ADME, organism-based; details: in vivo
# [6] = Subacute toxicity in Sprague-Dawley rat assessed as animal death at 50 to 140 mg/kg, IG administered once a day for 14 days; assay type: organism-based; details: in vivo, po, 336 h, dose 50-140 mg/kg, time 14 day
# [7] = Subacute toxicity in Sprague-Dawley rat assessed as effect on white blood cell count at 140 mg/kg, IG administered once a day for 14 days; assay type: organism-based; details: in vivo, po, 336 h, time 14 day
# [8] = Acute toxicity in IG dosed Sprague-Dawley rat assessed as minimum lethal dose measured for 7 days; assay type: organism-based; details: in vivo, po, 168 h, time 7 day
# [9] = Ratio of Cmax in female Sprague-Dawley rat brain to plasma at 10 mg/kg, IG administered as single dose; assay type: ADME, organism-based; details: brain and plasma, po, read-out: BPR
# [10] = Plasma protein binding in human assessed as binding rate at 1200 ng/ml prewarmed for 30 mins by LC-MS/MS analysis; assay type: ADME, cell-free; details: read-out: PPB (converted)
# [11] = Half life in male Sprague-Dawley rat at 4 mg/kg, iv administered via tail vein and measured upto 24 hrs by LC-MS/MS analysis; assay type: ADME, organism-based; details: in vivo
# [12] = Half life in male Sprague-Dawley rat at 25 mg/kg, po measured upto 24 hrs by LC-MS/MS analysis; assay type: ADME, organism-based; details: in vivo
# [13] = Plasma protein binding in human assessed as binding rate at 1000 ng/ml prewarmed for 30 mins by LC-MS/MS analysis; assay type: ADME, cell-free; details: read-out: PPB (converted)
# [14] = AUC (0 to t) in male Sprague-Dawley rat at 4 mg/kg, iv administered via tail vein and measured upto 24 hrs by LC-MS/MS analysis; assay type: ADME, organism-based; details: in vivo
# [15] = AUC (0 to infinity) in male Sprague-Dawley rat at 25 mg/kg, po measured upto 24 hrs by LC-MS/MS analysis; assay type: ADME, organism-based; details: in vivo
# [16] = Plasma protein binding in rat assessed as binding rate at 500 ng/ml prewarmed for 30 mins by LC-MS/MS analysis; assay type: ADME, cell-free; details: read-out: PPB (converted)
# [17] = Metabolic stability in human liver microsomes at 1 uM measured upto 120 mins by LC-MS/MS analysis; assay type: ADME, Microsome; details: 2 h
# [18] = Plasma protein binding in rat assessed as binding rate at 1200 ng/ml prewarmed for 30 mins by LC-MS/MS analysis; assay type: ADME, cell-free; details: read-out: PPB (converted)
# [19] = Ratio of Cmax in male Sprague-Dawley rat brain to plasma at 10 mg/kg, IG administered as single dose; assay type: ADME, organism-based; details: brain and plasma, po, read-out: BPR
# [20] = Cmax in male Sprague-Dawley rat plasma at 10 mg/kg, IG administered as single dose; assay type: ADME, organism-based; details: po
# [21] = Subacute toxicity in Sprague-Dawley rat assessed as effect on lymphocyte count at 140 mg/kg, IG administered once a day for 14 days; assay type: organism-based; details: in vivo, po, 336 h, time 14 day
# [22] = Subacute toxicity in Sprague-Dawley rat assessed as effect on ECG at 140 mg/kg, IG administered once a day for 14 days; assay type: organism-based; details: in vivo, po, 336 h, time 14 day
# [23] = MRT (0 to infinity) in male Sprague-Dawley rat at 4 mg/kg, iv administered via tail vein and measured upto 24 hrs by LC-MS/MS analysis; assay type: ADME, organism-based; details: in vivo
# [24] = Cmax in male Sprague-Dawley rat brain at 10 mg/kg, IG administered as single dose; assay type: ADME, organism-based; details: po
# [25] = Subacute toxicity in Sprague-Dawley rat assessed as lethargy at 140 mg/kg, IG administered once a day for 14 days; assay type: organism-based; details: in vivo, po, 336 h, time 14 day
# [26] = Cmax in male Sprague-Dawley rat at 25 mg/kg, po measured upto 24 hrs by LC-MS/MS analysis; assay type: ADME, organism-based; details: in vivo
# [27] = Acute toxicity in Sprague-Dawley rat assessed as lethargy at 700 mg/kg, IG measured for 7 days; assay type: organism-based; details: in vivo, po, 168 h, time 7 day
# [28] = Subacute toxicity in Sprague-Dawley rat assessed as organ abnormalities at 50 mg/kg, IG administered once a day for 14 days; assay type: organism-based; details: in vivo, po, 336 h, time 14 day
# [29] = Volume of distribution in male Sprague-Dawley rat at 25 mg/kg, po measured upto 24 hrs by LC-MS/MS analysis; assay type: ADME, organism-based; details: in vivo
# [30] = Plasma protein binding in human assessed as binding rate at 250 ng/ml prewarmed for 30 mins by LC-MS/MS analysis; assay type: ADME, cell-free; details: read-out: PPB (converted)
# [31] = Metabolic stability in Beagle dog liver microsomes at 1 uM measured upto 120 mins by LC-MS/MS analysis; assay type: ADME, Canis lupus familiaris, Microsome; details: 2 h
# [32] = Apparent permeability across basolateral to apical side in human Caco-2 cells at 5 uM measured at 60 mins; assay type: ADME, cell-based
# [33] = Subacute toxicity in Sprague-Dawley rat assessed as ptosis at 140 mg/kg, IG administered once a day for 14 days; assay type: organism-based; details: in vivo, po, 336 h, time 14 day
# [34] = Tmax in male Sprague-Dawley rat at 25 mg/kg, po measured upto 24 hrs by LC-MS/MS analysis; assay type: ADME, organism-based; details: in vivo
# [35] = Subacute toxicity in Sprague-Dawley rat assessed as increase in spleen to brain ratio at 140 mg/kg, IG administered once a day for 14 days; assay type: organism-based; details: in vivo, po, 336 h, time 14 day
# Cytochrome P450 1A2 = target: T1, Cytochrome P450 1A2 (Mus musculus, UniProt P00186); assay: Inhibition of mouse CYP1A2 at 0.01 to 50 uM measured after 30 mins by LC-MS/MS analysis; assay type: ADME; details: 0.5 h, dose 0.01-50 µM
# T1 sequence (P00186 whole entry): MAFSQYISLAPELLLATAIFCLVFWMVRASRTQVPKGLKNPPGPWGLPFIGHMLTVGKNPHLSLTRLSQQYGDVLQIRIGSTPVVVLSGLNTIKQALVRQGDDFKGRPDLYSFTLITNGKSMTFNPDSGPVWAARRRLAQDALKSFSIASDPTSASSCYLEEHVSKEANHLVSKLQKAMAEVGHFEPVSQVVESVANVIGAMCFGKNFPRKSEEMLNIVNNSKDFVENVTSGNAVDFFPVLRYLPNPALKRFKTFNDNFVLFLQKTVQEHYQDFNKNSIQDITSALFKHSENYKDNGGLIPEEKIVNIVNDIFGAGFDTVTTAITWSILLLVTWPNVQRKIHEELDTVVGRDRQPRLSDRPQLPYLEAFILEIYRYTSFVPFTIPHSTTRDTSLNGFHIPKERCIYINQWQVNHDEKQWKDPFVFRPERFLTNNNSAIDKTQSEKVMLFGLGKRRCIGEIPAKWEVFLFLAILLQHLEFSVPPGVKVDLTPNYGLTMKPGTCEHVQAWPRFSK
# [36] = Apparent permeability across apical to basolateral side in human Caco-2 cells at 5 uM measured at 60 mins; assay type: ADME, cell-based
# [37] = Acute toxicity in Sprague-Dawley rat assessed as reduction in animal activity at 700 mg/kg, IG measured for 7 days; assay type: organism-based; details: in vivo, po, 168 h, time 7 day
# [38] = Cmax in female Sprague-Dawley rat brain at 10 mg/kg, IG administered as single dose; assay type: ADME, organism-based; details: po
# [39] = Acute toxicity in Sprague-Dawley rat assessed as weight loss at 700 mg/kg, IG measured for 7 days; assay type: organism-based; details: in vivo, po, 168 h, time 7 day
# [40] = Plasma protein binding in human assessed as binding rate at 500 ng/ml prewarmed for 30 mins by LC-MS/MS analysis; assay type: ADME, cell-free; details: read-out: PPB (converted)
# [41] = AUC (0 to t) in male Sprague-Dawley rat at 25 mg/kg, po measured upto 24 hrs by LC-MS/MS analysis; assay type: ADME, organism-based; details: in vivo
# [42] = Subacute toxicity in Sprague-Dawley rat assessed as effect on neutrophil count at 140 mg/kg, IG administered once a day for 14 days; assay type: organism-based; details: in vivo, po, 336 h, time 14 day
# [43] = Plasma protein binding in rat assessed as binding rate at 1000 ng/ml prewarmed for 30 mins by LC-MS/MS analysis; assay type: ADME, cell-free; details: read-out: PPB (converted)
# [44] = Metabolic stability in mouse liver microsomes assessed as half life at 1 uM measured upto 120 mins by LC-MS/MS analysis; assay type: ADME, Microsome
# [45] = Cmax in female Sprague-Dawley rat plasma at 10 mg/kg, IG administered as single dose; assay type: ADME, organism-based; details: po
# [46] = Clearance in male Sprague-Dawley rat at 4 mg/kg, iv administered via tail vein and measured upto 24 hrs by LC-MS/MS analysis; assay type: ADME, organism-based; details: in vivo
# [47] = Subacute toxicity in Sprague-Dawley rat assessed as increase in aspartate aminotransferase level in serum at 140 mg/kg, IG administered once a day for 14 days; assay type: organism-based; details: in vivo, po, 336 h, time 14 day
# [48] = Subacute toxicity in Sprague-Dawley rat assessed as wheezing at 140 mg/kg, IG administered once a day for 14 days; assay type: organism-based; details: in vivo, po, 336 h, time 14 day
# [49] = Plasma protein binding in rat assessed as binding rate at 250 ng/ml prewarmed for 30 mins by LC-MS/MS analysis; assay type: ADME, cell-free; details: read-out: PPB (converted)
# [50] = Clearance in male Sprague-Dawley rat at 25 mg/kg, po measured upto 24 hrs by LC-MS/MS analysis; assay type: ADME, organism-based; details: in vivo
# [51] = Subacute toxicity in Sprague-Dawley rat assessed as abnormal symptoms at 50 mg/kg, IG administered once a day for 14 days; assay type: organism-based; details: in vivo, po, 336 h, time 14 day
# [52] = Volume of distribution in male Sprague-Dawley rat at 4 mg/kg, iv administered via tail vein and measured upto 24 hrs by LC-MS/MS analysis; assay type: ADME, organism-based; details: in vivo
# Chain of Muscarinic acetylcholine receptor M3 (P20309 whole entry): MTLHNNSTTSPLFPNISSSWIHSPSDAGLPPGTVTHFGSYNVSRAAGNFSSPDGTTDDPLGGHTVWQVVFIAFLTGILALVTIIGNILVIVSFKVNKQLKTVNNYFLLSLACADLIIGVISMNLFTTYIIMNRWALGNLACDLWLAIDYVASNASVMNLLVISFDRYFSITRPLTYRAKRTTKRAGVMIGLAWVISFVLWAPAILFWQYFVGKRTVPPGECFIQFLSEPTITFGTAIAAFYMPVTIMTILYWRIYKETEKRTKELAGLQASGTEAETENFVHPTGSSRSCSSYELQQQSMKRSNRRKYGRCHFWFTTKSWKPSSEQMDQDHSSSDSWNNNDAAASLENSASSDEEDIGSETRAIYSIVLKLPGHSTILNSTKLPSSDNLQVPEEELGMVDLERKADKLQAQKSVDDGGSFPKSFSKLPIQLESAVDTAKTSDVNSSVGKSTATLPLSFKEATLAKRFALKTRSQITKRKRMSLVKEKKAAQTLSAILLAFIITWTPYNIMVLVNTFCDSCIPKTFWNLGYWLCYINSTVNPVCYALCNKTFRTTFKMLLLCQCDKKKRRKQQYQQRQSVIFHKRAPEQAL
# Chain of Voltage-gated inwardly rectifying potassium channel KCNH2 (Q12809 whole entry): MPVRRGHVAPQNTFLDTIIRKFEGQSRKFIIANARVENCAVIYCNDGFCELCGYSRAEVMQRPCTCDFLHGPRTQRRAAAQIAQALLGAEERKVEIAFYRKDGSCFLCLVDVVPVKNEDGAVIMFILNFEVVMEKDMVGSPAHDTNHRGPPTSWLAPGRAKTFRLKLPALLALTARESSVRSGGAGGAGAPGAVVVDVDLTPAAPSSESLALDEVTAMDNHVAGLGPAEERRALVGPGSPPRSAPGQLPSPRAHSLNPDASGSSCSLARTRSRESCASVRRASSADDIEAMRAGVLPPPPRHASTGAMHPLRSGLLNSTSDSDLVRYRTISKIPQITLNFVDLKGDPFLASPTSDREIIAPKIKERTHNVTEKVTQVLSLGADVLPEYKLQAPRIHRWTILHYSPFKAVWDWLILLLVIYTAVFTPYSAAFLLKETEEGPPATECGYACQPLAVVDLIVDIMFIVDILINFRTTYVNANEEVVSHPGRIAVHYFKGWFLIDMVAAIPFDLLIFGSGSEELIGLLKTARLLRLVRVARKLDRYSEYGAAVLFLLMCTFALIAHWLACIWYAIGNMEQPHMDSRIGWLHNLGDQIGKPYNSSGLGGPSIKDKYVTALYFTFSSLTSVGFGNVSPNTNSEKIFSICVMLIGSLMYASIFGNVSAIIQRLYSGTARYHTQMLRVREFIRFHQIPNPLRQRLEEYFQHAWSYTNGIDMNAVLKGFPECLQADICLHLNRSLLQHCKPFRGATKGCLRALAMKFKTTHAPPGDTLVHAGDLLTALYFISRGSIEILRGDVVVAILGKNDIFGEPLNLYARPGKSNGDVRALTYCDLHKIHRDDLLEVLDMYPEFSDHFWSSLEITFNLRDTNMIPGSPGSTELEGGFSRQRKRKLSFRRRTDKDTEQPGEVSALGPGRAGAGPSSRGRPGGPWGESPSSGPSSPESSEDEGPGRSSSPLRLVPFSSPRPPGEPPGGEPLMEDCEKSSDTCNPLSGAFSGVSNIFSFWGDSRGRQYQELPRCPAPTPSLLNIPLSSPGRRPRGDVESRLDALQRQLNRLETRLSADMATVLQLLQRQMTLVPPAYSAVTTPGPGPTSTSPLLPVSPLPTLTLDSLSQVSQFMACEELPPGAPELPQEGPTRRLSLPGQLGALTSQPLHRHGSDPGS
smiles,measurement,setting,value
CC(C)(C(=O)O)c1ccc(CCCN2CCC(=C3c4ccc(Cl)cc4CCc4cccnc43)CC2)cc1,IC50,[1],> 30 µM
same,IC50,[2],> 10 µM
OC[C@H](O)CN1CCC(=C2c3ccc(Cl)cc3CCc3cccnc32)CC1,IC50,[1],2.64 µM
same,IC50,[2],> 10 µM
O=C(O)c1ccc(CCCN2CCC(=C3c4ccc(Cl)cc4CCc4cccnc43)CC2)cc1,IC50,[2],> 10 µM
CC(C)(C(=O)O)c1cccc(CCCN2CCC(=C3c4ccc(Cl)cc4CCc4cccnc43)CC2)c1,bioavailability,[3],59.5%
same,AUC(0-inf),[4],1820 ng·h/mL
same,MRT inf,[5],6.01 h
same,Activity,[6],Non-Toxic
same,Activity,[7],Non-Toxic
same,MLD,[8],350 mg/kg
same,Kp,[9],0.066
same,"fraction unbound at 0.5 h, 1200 ng/ml",[10],0.284
same,half-life,[11],0.653 h
same,half-life,[12],4.05 h
same,"fraction unbound at 0.5 h, 1000 ng/ml",[13],0.321
same,AUC(0-t) at 24 h,[14],1680 ng·h/mL
same,AUC(0-inf),[15],7210 ng·h/mL
same,"fraction unbound at 0.5 h, 500 ng/ml",[16],0.34
same,Stability,[17],Stable
same,"fraction unbound at 0.5 h, 1200 ng/ml",[18],0.302
same,Kp,[19],0.066
same,Cmax,[20],239 ng/g
same,Activity,[21],Non-Toxic
same,Activity,[22],Non-Toxic
same,MRT inf,[23],0.7 h
same,IC50,[1],17.6 µM
same,Cmax,[24],15.8 ng/g
same,Activity,[25],Toxic
same,Cmax,[26],1720 ng/mL
same,Activity,[27],Toxic
same,Activity,[28],Non-Toxic
same,Vd,[29],21.26 L/kg
same,"fraction unbound at 0.5 h, 250 ng/ml",[30],0.347
same,Stability,[31],Stable
same,"Papp B→A at 1 h, 5 µM",[32],6.06 ×10⁻⁶ cm/s
same,Activity,[33],Toxic
same,Tmax,[34],0.38 h
same,Activity,[35],Toxic
same,inhibition (INH),Cytochrome P450 1A2,Not Active
same,"Papp A→B at 1 h, 5 µM",[36],5.82 ×10⁻⁶ cm/s
same,Activity,[37],Toxic
same,Cmax,[38],126 ng/g
same,Activity,[39],Toxic
same,"fraction unbound at 0.5 h, 500 ng/ml",[40],0.321
same,AUC(0-t) at 24 h,[41],6250 ng·h/mL
same,Activity,[42],Non-Toxic
same,"fraction unbound at 0.5 h, 1000 ng/ml",[43],0.327
same,half-life at 1 µM,[44],1.44 h
same,Cmax,[45],1930 ng/g
same,IC50,[2],> 10 µM
same,clearance,[46],37 mL/min/kg
same,Activity,[47],Toxic
same,Activity,[48],Toxic
same,"fraction unbound at 0.5 h, 250 ng/ml",[49],0.346
same,CL/F,[50],59.4 mL/min/kg
same,Activity,[51],Non-Toxic
same,Vd,[52],1.77 L/kg

# From ChEMBL document CHEMBL5512623, “Discovery of the novel and potent histamine H1 receptor antagonists for treatment of allergic diseases” (Eur J Med Chem, 2024)
